Results reported in patent publication US20260028390A1, “ALPHA1-ANTITRYPSIN FOR USE IN THE TREATMENT OF DISEASES OR DISORDERS OF THE NERVOUS SYSTEM SUCH AS CHRONIC INFLAMMATORY DEMYELINATING POLYNEUROPATHY” (Ageronix SA, priority 2022, published 2026).
Values joined by “and” are separate entries in the source; they are usually repeats but may differ in a detail not shown here. Equal entries are not always repeated.

What was measured:
Human Schwann cells = test: TNFα-induced Schwann cell activation, target gene expression by qPCR; type: cell-based; conditions: AAT 50 μM pre-treatment 24 hours, TNFα 10 ng/mL 24 hours
Method: Human Schwann cells (P10351, Innoprot) were seeded in 12 well plates at 120000 cells per well in DMEM. Cells were pre-treated with either buffer (controls) or AAT (50 μM) for 24 hours before stimulation by TNFα (10 ng/mL). The plates were then incubated at 37° C. for 24 hours. The RNA was extracted and selected target gene expression was measured by qPCR.
The genes evaluated for their regulation included the NF-κB early gene response NFKBIA, as well as the TNFα and TNFR1 genes. Expression of the gene coding for the IL-6 pro-inflammatory cytokine was also evaluated.

[1] = system: CMT1A mice B6.Cg-Tg(PMP22)C3Fbas/J; test: Rotarod latency to fall, CMT mice treated with AAT 180 mg/kg/day sc; type: in vivo, mouse
plasma NfL = test: Plasma NfL, CMT mice treated with AAT 180 mg/kg/day sc; type: in vivo, mouse
Description: Animals were received at 6 weeks of age and housed under controlled conditions for the duration of the study. The study comprised two groups of 8 transgenic mice (CMT mice) each and one group of 8 age matched wild type (WT) C57B16 mice, serving as positive control. Animals were assigned to the following subcutaneous treatments twice daily at 7:00 AM and 7:00 PM for 2 weeks, starting from 8 weeks and up to 10 weeks of age: • Wild-type (WT, no disease) mice receiving vehicle, 0.9% NaCl (positive control) • CMT1A mice receiving vehicle, 0.9% NaCl (negative control) • CMT1A mice receiving AAT at 90 mg/kg per injection (daily dose 180 mg/kg)
The efficacy parameters included: • neuromuscular performance (rotarod latency to fall and grip strength test), • sciatic nerve electrophysiology (CMAP amplitude and NCV) • cytokine (IL-6 and TNFα), as well as NfL analysis • sciatic nerve histology (number of axons and axonal diameter),
As supportive information for the mode of action of AAT in CMT, plasma concentration of interleukin 6 (IL-6) and TNFα were measured at Day 1 (8 weeks), Day 15 (10 weeks) and Day 30 (12 weeks). At the same timepoints, plasma levels of the biomarker of nerve damage, NfL were determined.

SH-SY5Y cells = test: Cell growth (cell count, morphology) of SH-SY5Y treated with 6-OHDA; type: cell-based; conditions: 6-OHDA combined with AAT 25 μM, day 4 of culture, p=0.003
Method: SH-SY5Y cells, which are commonly used to model neurodegenerative disorders, were used to produce an in vitro Parkinson's model (Que R, et al., 2021, Front. Immunol. 12). Cells were cultured in DMEMF12/Glutamax supplemented with 10% FBS.
Cells were treated for 24 hours with the neurotoxin 6-hydroxydopamine (6-OHDA, Sigma Aldrich 162957) at 50, 100 μM concentrations alone or in combination with AAT 25 μM (AAT plasma derived, Sigma Aldrich batch A9024). Cells treated with AAT alone or in combination with 6-OHDA for 24 hours, were then incubated with fresh AAT for additional 24 hours. Control cells were treated with PBS.
At day 0 cells were plated in equally number in 24-well plate, the day after they were treated as described above, and final total cell count was performed at day 4 of culture (cell growth). Cell viability was assessed with Cell Counting Kit-8 (CCK-8; Sigma Aldrich 96992). After treatments, cells were incubated with 10 μl of CCK-8 solution for 2 hours in the incubator. Absorbance was measured at 450 nm using SpectraMax iD3 Microplate Reader. Experiments were performed in triplicate.

[2] = Plasma AAT levels, CMT1A mouse study (50 mg/kg twice daily); type: in vivo; conditions: CMT1A + AAT group
Method: (§1) Animals were split in 3 groups (wild-type control (subcutaneous 0.9% NaCl), CMT1A-vehicle (subcutaneous 0.9% NaCl), CMT1A-human alpha-1 antitrypsin (subcutaneous, twice daily, 50 mg/kg per injection)) of 3 mice each (3 weeks old males of 18±2.5 g at the beginning of study) and all went through the following protocol after 7 days of acclimation on site.
Plasma levels of AAT were evaluated every 5 days from the first day of treatment to the last treatment day.
AAT was not detected in plasma of the wild type control and CMT1A mice treated with vehicle at the analyzed time points (day 14, day 19, day 24 and day 29). The AAT was detected in plasma of CMT1A+AAT group at a mean of 6.07 μg/mL, 6.99 μg/mL, 8.14 μg/mL and 5.22 μg/mL at day 14, day 19, day 24 and day 29 respectively.

plasma TNFα = test: Plasma TNFα quantification, CIDP mouse model; type: in vivo; conditions: for Plasma TNFα concentration (Mean ± SD): CIDP mice; for TNFα conc: per animal, listed as hAAT
Method: C57BL/6 mice were received at 8 weeks of age and housed under controlled conditions for the duration of the study. Three groups of 4 animals each were assigned to the following subcutaneous treatments twice daily at 7:00 AM and 7:00 PM for 2 weeks, from 20 to 35 days after the start of disease induction: • Wild type (WT) mice receiving the vehicle, 0.9% NaCl (positive control) • CIDP mice receiving the vehicle, 0.9% NaCl (negative control) • CIDP mice receiving human AAT (AAT), 50 mg/kg per injection
On the day preceding disease induction (Day 1), on the first (Day 20) and on the last (Day 35) treatment day, animals were subjected to blood samplings for the determination of neurofilament light chain (NfL), tumour necrosing factor alpha (TNFα) and TMPRSS5 levels, as described in FIG. 20. In addition, plasma levels of AAT were evaluated on the last treatment day.

plasma IL-6 = test: Plasma IL-6 concentration, CMT1A mouse study (50 mg/kg twice daily); type: in vivo; conditions: for Plasma IL-6 concentration (Mean ± SD): CMT1A mice
Method: as §1
Starting from the age of 4 weeks, animals were subjected to blood samplings for the determination of interleukin-6 (IL-6) and tumor necrosing factor alpha (TNFα) levels, as described in FIG. 16.

[3] = baseline (6 weeks old), CMT + hAAT, individual animal
[4] = Day 20, before compound treatment

## alpha1-antitrypsin (AAT) protein
Human Schwann cells
  NF-κb pathway transcripts: downregulated
  expression of genes modulated by TNF-induced oxidative stress response: inhibited
[1]; CMT mice, AAT 90 mg/kg sc twice a day, 8 to 10 weeks of age, end of treatment
  rotarod latency to fall vs CMT mice not treated with AAT: significant increase
[1]; baseline (6 weeks old), CMT + hAAT, 8 animals
  Rotarod latency, group Mean: 71.46 s
[1]; [3]
  Rotarod latency, Mean/animal: 53.43 s and 52.98 s and 66.74 s and 56.96 s and 66.75 s and 65.56 s and 106.66 s and 102.61 s
  Rotarod latency, set 1: 53.47 s and 57.35 s and 69.94 s and 62.11 s and 65.03 s and 66.86 s and 110.28 s and 93.16 s
  Rotarod latency, set 2: 57.11 s and 51.61 s and 67.40 s and 54.79 s and 72.92 s and 68.48 s and 109.55 s and 105.36 s
  Rotarod latency, set 3: 49.72 s and 49.96 s and 62.87 s and 53.98 s and 62.30 s and 61.35 s and 100.14 s and 109.32 s
Plasma NfL; 8 weeks old (baseline, Day 1), CMT1A + AAT
  Plasma NfL (Mean ± SD): 3.83 ± 0.61 ng/mL
Plasma NfL; 10 weeks old (Day 15, after 2 weeks AAT 90 mg/kg sc twice daily)
  Plasma NfL (Mean ± SD): 1.96 ± 0.46 ng/mL
Plasma NfL; 12 weeks of age, after 2-week treatment-free period
  positive effect on NfL plasma levels: remained significant
Plasma NfL; 12 weeks old (Day 30, after 2-week treatment-free period)
  Plasma NfL (Mean ± SD): 4.25 ± 0.36 ng/mL
Plasma NfL; CMT mice, AAT 90 mg/kg sc twice a day
  level of NfL: reduced
SH-SY5Y cells
  number of cells counted compared to 6-OHDA alone: significantly increased
[2]; day 14
  AAT detected in plasma (mean): 6.07 µg/mL
[2]; day 19
  AAT detected in plasma (mean): 6.99 µg/mL
[2]; day 24
  AAT detected in plasma (mean): 8.14 µg/mL
[2]; day 29
  AAT detected in plasma (mean): 5.22 µg/mL
Plasma TNFα; CIDP + AAT, day 35
  plasma TNFα concentration compared to the CIDP+vehicle treated group: significant decrease
Plasma TNFα; Day 1
  Plasma TNFα concentration (Mean ± SD): 138.46 ± 18.58 pg/mL
  TNFα conc, group MEAN: 138.46 pg/mL
Plasma TNFα; Day 20
  Plasma TNFα concentration (Mean ± SD): 1397.62 ± 330.96 pg/mL
  TNFα conc, group MEAN: 1397.62 pg/mL
Plasma TNFα; Day 35
  Plasma TNFα concentration (Mean ± SD): 1046.73 ± 144.47 pg/mL
  Plasma TNFα, Mean Diff., CIDP + vehicle vs. CIDP + hAAT (Bonferroni's multiple comparisons test): 385.1
  TNFα conc, group MEAN: 1046.73 pg/mL
  TNFα conc: 910.997 pg/mL and 1161.216 pg/mL and 933.130 pg/mL and 1181.571 pg/mL
Plasma TNFα; [4]
  Plasma TNFα, Mean Diff., CIDP + vehicle vs. CIDP + hAAT (Bonferroni's multiple comparisons test): −187.9
  Plasma TNFα, Significant?, CIDP + vehicle vs. CIDP + hAAT (Bonferroni's multiple comparisons test): No
Plasma TNFα; Day 1 (before model induction)
  TNFα conc: 125.451 pg/mL and 165.501 pg/mL and 135.780 pg/mL and 127.127 pg/mL
Plasma TNFα; Day 20 (before compound treatment)
  TNFα conc: 1705.849 pg/mL and 1029.281 pg/mL and 1208.445 pg/mL and 1646.907 pg/mL
Plasma IL-6; Day 1 (baseline)
  Plasma IL-6 concentration (Mean ± SD): 34.19 ± 1.67 pg/mL
Plasma IL-6; Day 8
  Plasma IL-6 concentration (Mean ± SD): 39.10 ± 1.91 pg/mL
Plasma IL-6; Day 14
  Plasma IL-6 concentration (Mean ± SD): 84.21 ± 4.727 pg/mL
Plasma IL-6; Day 29
  Plasma IL-6 concentration (Mean ± SD): 90.20 ± 3.085 ^† pg/mL
Plasma IL-6; CMT + AAT, day 29
  plasma IL-6 concentration vs animals treated with vehicle: lower
